For orientation: IC50 means the concentration that gives 50% inhibition.

Structures can show the parent of a compound that is named as a salt.

Sequence of HPK1 (Q92918 whole entry): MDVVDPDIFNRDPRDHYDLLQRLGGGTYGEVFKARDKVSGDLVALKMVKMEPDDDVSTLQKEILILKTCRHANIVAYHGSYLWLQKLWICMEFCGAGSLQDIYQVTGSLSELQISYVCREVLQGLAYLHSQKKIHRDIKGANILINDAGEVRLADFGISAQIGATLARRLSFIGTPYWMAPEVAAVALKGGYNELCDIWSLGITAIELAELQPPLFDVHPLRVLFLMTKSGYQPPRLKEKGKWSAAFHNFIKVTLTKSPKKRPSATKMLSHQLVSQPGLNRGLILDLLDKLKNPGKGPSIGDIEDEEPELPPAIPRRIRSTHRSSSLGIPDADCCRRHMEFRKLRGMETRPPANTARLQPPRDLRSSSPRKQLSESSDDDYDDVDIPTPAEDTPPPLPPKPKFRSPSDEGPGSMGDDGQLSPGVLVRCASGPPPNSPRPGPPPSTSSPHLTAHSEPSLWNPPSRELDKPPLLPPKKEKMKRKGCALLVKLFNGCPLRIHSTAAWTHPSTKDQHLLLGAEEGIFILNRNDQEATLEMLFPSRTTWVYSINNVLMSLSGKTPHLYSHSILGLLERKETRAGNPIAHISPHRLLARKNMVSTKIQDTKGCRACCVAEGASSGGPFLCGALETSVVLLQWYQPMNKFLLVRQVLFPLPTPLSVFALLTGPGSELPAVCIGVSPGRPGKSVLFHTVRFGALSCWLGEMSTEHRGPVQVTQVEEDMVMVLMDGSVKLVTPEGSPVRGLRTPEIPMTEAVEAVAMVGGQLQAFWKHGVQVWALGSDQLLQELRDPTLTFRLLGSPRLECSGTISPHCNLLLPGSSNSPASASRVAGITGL

The test deals with HPK1 (Homo sapiens (Human), UniProt Q92918). Briefly: HPK1 biochemical enzyme assay (microfluidic mobility shift assay). The following applies: 1.5 nM HPK1, ATP 1 mM final, 30 min preincubation, 60 min at RT, Caliper EZ Reader; read-out: HPK1 1000UMATP caliper IC50. Summed up:
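Mobility shift readout of HPK1 activity after a 60 min RT reaction with 1 mM ATP, 1 μM substrate and 5 mM MgCl2. Enzyme/substrate mix was first exposed to compounds for 30 min, using ten-point curves topping at 3 μM final.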
As for `CN(C)C(C)(C)c1nc(Nc2ccc(-c3cnc4cc(F)ccn34)c3c2C(=O)NC3)ccc1[C@H]1CCOC1` [I-832, (R)-7-((6-(2-(dimethylami-no)propan-2-yl)-5-(THF-3-yl)pyridin-2-yl)amino)-4-(7-fluoroimidazo [1,2-a]pyridin-3-yl)isoindolin-1-one], the concentration for half-maximal inhibition (IC50) was 100 to 1000 nM.

Consider `CN(C)C(C)(C)c1nc(Nc2ccc(-c3cnc4cc(F)ccn34)c3c2C(=O)NC3)ccc1[C@@H]1CCOC1` [I-833, (S)-7-((6-(2-(dimethylami-no)propan-2-yl)-5-(THF-3-yl)pyridin-2-yl)amino)-4-(7-fluoroimidazo [1,2-a]pyridin-3-yl)isoindolin-1-one], for which the IC50 lay in the range of 100 to 1000 nM. The figure for `CN(C)Cc1nc(Nc2ccc(-c3cnc4cc(F)ccn34)c3c2C(=O)NC3)ccc1C1(F)CCOCC1` [I-834, 7-((6-((dimethylamino)-methyl)-5-(4-fluorotetrahy-dro-2H-pyran-4-yl)pyridin-2-yl)amino)-4-(7-fluoroimidazo [1,2-a]pyridin-3-yl)isoindolin-1-one] is less than 100 nM; for `Cn1ccc2c(-c3ncc(Nc4ccc([C@@H]5CCOC5)c(CN)n4)c4c3CNC4=O)ccnc21` [I-836, (S)-7-((6-(aminomethyl)-5-(THF-3-yl)pyridin-2-yl)amino)-4-(1-methyl-1H-pyrrolo[2,3-b]pyridin-4-yl)-2,3-dihydro-1H-pyrrolo[3,4-c]pyridin-1-one] it is less than 100 nM; for `COCC1(c2ccc(Nc3ccc(-c4cnc5cc(F)ccn45)c4c3C(=O)NC4)nc2CN(C)C)CCOC1` (stereo not drawn) [I-837, 7-((6-((dimethylamino)methyl)-5-(3-(methoxymethyl)tetrahydrofuran-3-yl)pyridin-2-yl)amino)-4-(7-fluoroimidazo[1,2-a]pyridin-3-yl)isoindolin-1-one] it is less than 100 nM. For the compound `CN(C)CCc1nc(Nc2ccc(-c3cnc4cc(F)ccn34)c3c2C(=O)NC3)ccc1C1CCOCC1` [I-838, 7-((6-(2-(dimethylami-no)ethyl)-5-(tetrahydro-2H-pyran-4-yl)pyridin-2-yl)amino)-4-(7-fluoroimidazo [1,2-a]pyridin-3-yl)isoindolin-1-one], the half-inhibitory concentration (IC50) was less than 100 nM.

`CN(C)Cc1nc(Nc2cnc(-c3ccnc4c3ccn4C)c3c2C(=O)NC3)ccc1N1CCOC2(CC2)C1` [I-839, 7-((6-((dimethylamino)-methyl)-5-(4-oxa-7-azaspiro[2.5]octan-7-yl)pyridin-2-yl)amino)-4-(1-methyl-1H-pyrrolo[2,3-b]pyridin-4-yl)-2,3-dihydro-1H-pyrrolo[3,4-c]pyridin-1-one]: the half-maximal inhibitory concentration (IC50) was less than 100 nM.

In the case of `CN(C)CCc1nc(Nc2ccc(-c3cnc4cc(F)ccn34)c3c2C(=O)NC3)ccc1N1CCOCC1` [I-840, 7-((6-(2-(dimethylami-no)ethyl)-5-morpholinopyridin-2-yl)amino)-4-(7-fluoroimidazo [1,2-a]pyridin-3-yl)isoindolin-1-one], the half-maximal inhibitory concentration (IC50) was less than 100 nM. Regarding `CN(C)[C@H]1CCCc2ccc(Nc3ccc(-c4cnc5cc(F)ccn45)c4c3C(=O)NC4)nc21` [I-841, (S)-7-((8-(dimethylam-ino)-5,6.7,8-tetrahydroquin-olin-2-yl)amino)-4-(7-fluoroimidazo [1,2-a]pyridin-3-yl)isoindolin-1-one], the IC50 was in the range of 100 to 1000 nM. The figure for `CN(C)[C@@H]1CCCc2ccc(Nc3ccc(-c4cnc5cc(F)ccn45)c4c3C(=O)NC4)nc21` [I-842, (R)-7-((8-(dimethylam-ino)-5,6,7,8-tetrahydroquin-olin-2-yl)amino)-4-(7-fluoroimidazo [1,2-a]pyridin-3-yl)isoindo1in-1-one] is less than 100 nM; for `CN(C)Cc1nc(Nc2ccc(-c3cnc4cc(F)ccn34)c3c2C(=O)NC3)ccc1C1(C)CCOC1` (stereo not drawn) [I-843, 7-((6-((dimethylamino)-methyl)-5-(3-methylTHF-3-yl)pyridin-2-yl)amino)-4-(7-fluoroimidazo [1,2-a]pyridin-3-yl)isoindolin-1-one] it is less than 100 nM. In the case of `CC(C)NCc1nc(Nc2cnc(-c3ccnc4c3ccn4C)c3c2C(=O)NC3)ccc1C1CCOCC1` [I-844, 7-[[6-[(isopropylamino)-methyl]-5-tetrahydropy-ran-4-yl-2-pyridyl]amino]-4-(1-methylpyrrolo [2,3-b]pyridin-4-yl)-2,3-dihydropyrrolo [3,4-c]pyridin-1-one Formic acid salt], the concentration for half-maximal inhibition (IC50) was less than 100 nM. On to `CN(C)Cc1nc(Nc2cnc(-c3ccnc4c3ccn4C)c3c2C(=O)NC3)ccc1C1CCOCC1` [I-845, 7-[[6-[(dimethylamino)-methyl]-5-tetrahydropyran-4-yl-2-pyridyl]amino]-4-[l-methylpyrrolo [2,3-b]pyridin-4-yl)-2,3-dihydropyrrolo [3,4-c]pyridin-1-one Formic acid salt], for which the half-inhibitory concentration (IC50) is less than 100 nM. Turning to `CC(C)NCc1nc(Nc2ccc(-c3cnc4cc(F)ccn34)c3c2C(=O)NC3)ccc1C1CCOCC1` [I-847, 4-(7-fluoroimidazo [1,2-a]pyridin-3-yl)-7-[[6-[(isopropylamino)-methyl]-5-tetrahydropyran-4-yl-2-pyridyl]amino] isoindolin-1-one Formic acid salt], the IC50 was less than 100 nM. The figure for `CC(C)(C)NCc1nc(Nc2ccc(-c3cnc4cc(F)ccn34)c3c2C(=O)NC3)ccc1C1CCOC1` (stereo not drawn) [I-848, 7-[[6-[(tert-butylamino)methyl]-5-tetrahydrofuran-3-yl-2-pyridyl]amino]-4-(7-fluoroimidazo [1,2-a]pyridin-3-yl)isoindolin-1-one] is less than 100 nM; for `O=C1NCc2c(-c3cnc4cc(F)ccn34)ccc(Nc3ccc(C4CCOC4)c(CNCC4CC4)n3)c21` (stereo not drawn) [I-849, 7-[[6-[(cyclopropylmethylamino)methyl]-5-tetrahydrofuran-3-yl-2-pyridyl]amino]-4-(7-fluoroimidazo [1,2-a]pyridin-3-yl)isoindolin-1-one Formic acid salt] it is less than 100 nM; for `CN(C)Cc1nc(Nc2ccc(-c3cnc4cnccn34)c3c2C(=O)NC3)ccc1C1CCOCC1` [I-850, 7-[[6-[(dimethylami-no)methyl]-5-tetrahydropyran-4-yl-2-pyridyl]amino]-4-imidazo[1,2-a]pyrazin-3-yl-isoindolin-1-one] it is less than 100 nM.

As to `CN(C)Cc1cc(C2CCCO2)cc(Nc2ccc(-c3cnc4cc(F)ccn34)c3c2C(=O)NC3)n1` (stereo not drawn) [I-852, 7-((6-((dimethylamino)-methyl)-4-(tetrahydrofuran-2-yl)pyridin-2-yl)amino)-4-(7-fluoroimidazo [1,2-a]pyridin-3-yl)isoindolin-1-one Formate salt], the IC50 is less than 100 nM.

“(R)-7-((5-(4-hydroxypiperidin-1-yl)pyridin-2-yl)amino)-3-methyl-4-(1-methyl-1H-pyrrolo[2,3-b]pyridin-4-yl)isoindolin-1-one [I-287]”: the IC50 was less than 100 nM. Next, “(R)-7-((6- ((dimethylamino)- methyl)-5- (tetrahydrofuran- 3-yl)pyridin- 2-yl)amino)-4- (8-methylimidazo [1,2-a]pyridin- 3-yl)isoindolin- 1-one [I-696]”: less than 100 nM. Next, “(R)-7-((6- ((dimethylamino)- methyl)-5-(2- (methoxymeth- yl)morpholino )pyridin-2- yl)amino)-4-(7- fluoroimidazo [1,2-a]pyridin- 3-yl)isoindolin- 1-one [I-711]”: less than 100 nM.

Take “(S)-7-((5-(4-hydroxypiperidin-1-yl)pyridin-2-yl)amino)-3-methyl-4-(1-methyl-1H-pyrrolo[2,3-b]pyridin-4-yl)isoindolin-1-one [I-286]”: the IC50 was greater than 1000 nM. As for “(S)-7-((6- ((dimethylamino)- methyl)-5- (tetrahydrofuran- 3-yl)pyridin- 2-yl)amino)-4- (1-methyl-1H- indol-4-yl)- 2,3-dihydro- 1H-pyrrolo[3,4- c]pyridin-1-one [I-540]”, the IC50 is less than 100 nM.

For “(S)-7-((6- ((dimethylamino)- methyl)-5- (tetrahydrofuran- 3-yl)pyridin- 2-yl)amino)-4- (8-methylimidazo [1,2-a]pyridin- 3-yl)isoindolin- 1-one [I-695]”, the 50% inhibitory concentration (IC50) was less than 100 nM.

(Values after patent US11021481B2, “Substituted isoindolin-1-ones and 2,3-dihydro-1h-pyrrolo[3,4-c]pyridin-1-ones as HPK1 antagonists” (Nimbus Saturn, Inc., priority 2019, dated 2021).)
